Consider one compound from patent US20080051348A1, “TREATMENT OF INFECTIONS AND OTHER DISORDERS” (RegeneRx Biopharmaceuticals, Inc., priority 2002, published 2008).

Assay type in all cases: cell-based
Experiment [1] concerns Staphylococcus aureus. In words: Antimicrobial activity, Example 3.
Experiment [2] has as its system Staphylococcus aureus. In words: Antimicrobial assay, Example 2. As for the experimental part:
(§1) Antimicrobial assays were performed to assess peptide activity against Pseudomonas aeruginosa (PA), Staphylococcus aureus ([…]), and Staphylococcus epidermidis (SE).

Experiment [3] has as its system Staphylococcus epidermidis (SE). In words: Antimicrobial assay, Example 2. As for the experimental part:
as §1

The subject of experiment [4] is Pseudomonas aeruginosa (PA). As to the method:
as §1

Experiment [5] concerns Escherichia coli. In words: Antimicrobial activity, Example 3.
The test system of experiment [6] is Pseudomonas aeruginosa. In words: Antimicrobial assay, Example 1. As to the method: The purpose of this study was to study the antimicrobial activity of peptides against common pathogens in vitro. Antimicrobial assays were performed to assess peptide activity against Pseudomonas aeruginosa. […]

Values after ≈ are worked out from the molar mass of the structure shown.

For the compound `CC[C@H](C)[C@H](NC(=O)[C@H](CCC(=O)O)NC(=O)[C@H](C)NC(=O)[C@H](CCSC)NC(=O)[C@H](CC(=O)O)NC(=O)[C@@H]1CCCN1C(=O)[C@H](CCCCN)NC(=O)[C@H](CC(=O)O)NC(=O)[C@H](CO)NC(C)=O)C(=O)N[C@@H](CCC(=O)O)C(=O)N[C@@H](CCCCN)C(=O)N[C@@H](Cc1ccccc1)C(=O)N[C@@H](CC(=O)O)C(=O)N[C@@H](CCCCN)C(=O)N[C@@H](CO)C(=O)N[C@@H](CCCCN)C(=O)N[C@@H](CC(C)C)C(=O)N[C@@H](CCCCN)C(=O)N[C@@H](CCCCN)C(=O)N[C@H](C(=O)N[C@@H](CCC(=O)O)C(=O)N[C@H](C(=O)N[C@@H](CCC(N)=O)C(=O)N[C@@H](CCC(=O)O)C(=O)N[C@@H](CCCCN)C(=O)N[C@@H](CC(N)=O)C(=O)N1CCC[C@H]1C(=O)N[C@@H](CC(C)C)C(=O)N1CCC[C@H]1C(=O)N[C@@H](CO)C(=O)N[C@@H](CCCCN)C(=O)N[C@@H](CCC(=O)O)C(=O)N[C@H](C(=O)N[C@H](C(=O)N[C@@H](CCC(=O)O)C(=O)N[C@@H](CCC(N)=O)C(=O)N[C@@H](CCC(=O)O)C(=O)N[C@@H](CCCCN)C(=O)N[C@@H](CCC(N)=O)C(=O)N[C@@H](C)C(=O)NCC(=O)N[C@@H](CCC(=O)O)C(=O)N[C@@H](CO)C(=O)O)[C@@H](C)CC)[C@@H](C)O)[C@@H](C)O)[C@@H](C)O` [Tβ4, thymosin β4], the “concentrations showing antimicrobial activity” value in experiment [1] and in experiment [5] was 5-20 n mol/ml in each case. Moreover, the “concentrations showing increasingly dose-dependent activity” value in experiment [1] and in experiment [5] was 50-200 n mol/ml in each case. Also, the “effectiveness against staphylococcal strains” value in experiment [2] and in experiment [3] was “weakly effective” throughout. Also, the “EC50 against PA” value in experiment [4] amounted to 18.1 ± 1.7 µg/mL (≈ 3.65 µM). Besides, in experiment [6] (against Pseudomonas aeruginosa), the “lowest dose where activity and/or protection was demonstrated” value is 0.5 to 1 µg/mL. The “EC50 against Pseudomonas aeruginosa” value in experiment [6] (in vitro) was 26.5 ± 1.6 µg/mL (≈ 5.34 µM).
